Measurements reported in patent US7208517B1, “Endothelin antagonists” (Abbott Labortories, priority 1994, dated 2007).

Biological target: T1, ETA Receptor (Rattus norvegicus, UniProt P26684)
T1 construct: endogenous in cells; host or cells: MMQ rat pituitary cells (membranes)
T1 sequence (P26684 21-426): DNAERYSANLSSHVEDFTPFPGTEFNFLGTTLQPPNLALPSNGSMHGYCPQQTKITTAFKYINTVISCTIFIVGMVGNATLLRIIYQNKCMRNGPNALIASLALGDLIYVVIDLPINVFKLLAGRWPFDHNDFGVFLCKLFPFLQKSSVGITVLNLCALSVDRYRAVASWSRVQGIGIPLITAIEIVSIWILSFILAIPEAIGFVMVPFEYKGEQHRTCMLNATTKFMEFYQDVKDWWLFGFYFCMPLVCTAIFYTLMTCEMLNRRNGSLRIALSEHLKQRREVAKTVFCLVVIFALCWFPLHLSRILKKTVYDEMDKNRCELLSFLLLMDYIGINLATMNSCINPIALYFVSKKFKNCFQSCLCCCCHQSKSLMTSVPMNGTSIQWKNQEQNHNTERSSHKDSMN
Assay: [125I]ET-1 binding to membranes from MMQ cells (ETA receptor binding assay, Table 4)
Conditions: test compound at 1 μM; 0.1 nM [125I]ET-1, MMQ cell membranes, 4 hours at 25° C.
Experimental: Preparation of Membranes from MMQ Cells:
MMQ [MacLeod/MacQueen/Login cell line (prolactin secreting rat pituitary cells)] cells from 150 mL culture flasks were collected by centrifugation (1000×g for 10 min) and then homogenized in 25 mL of 10 mM Hepes (pH 7.4) containing 0.25 M sucrose and protease inhibitors [3 mM EDTA, 0.1 mM PMSF, and 5 μg/mL Pepstatin A] by a micro ultrasonic cell disrupter (Kontes). The mixture was centrifuged at 1000×g for 10 min. The supernatant was collected and centrifuged at 60,000×g for 60 min. The precipitate was resuspended in 20 mM Tris, pH 7.4 containing the above protease inhibitors and centrifuged again. The final pellet was resuspended in 20 mM Tris, pH 7.4 containing protease inhibitors and stored at −80° C. until used. Protein content was determined by the Bio-Rad dye-binding protein assay.
Binding assays were performed in 96-well microtiter plates pretreated with 0.1% BSA. […] After incubation, unbound ligands were separated from bound ligands by a vacuum filtration method using glass-fiber filter strips in PHD cell harvesters (Cambridge Technology, Inc., MA), followed by washing the filter strips with saline (1 mL) for three times. Nonspecific binding was determined in the presence of 1 μM ET-1.

Row | SMILES | % Inhibition of ETA at 1 μM
1 | CCCN(CCN1CC(c2ccc3c(c2)OCO3)C(C(=O)O)C1c1ccc(OC)cc1)S(=O)(=O)c1ccc(Cl)cc1 (stereo not drawn) [Example 132, trans,trans-1-(2-(N-Propyl-N-(4-chlorobenzenesulfonyl)amino)ethyl)-2-(4-methoxyphenyl)-4-(1,3-benzodioxol-5-yl)pyrrolidine-3-carboxylic acid] | 90.0%
2 | CCCN(CCN1CC(c2ccc3c(c2)OCO3)C(C(=O)O)C1c1ccc(OC)cc1)S(=O)(=O)Cc1ccccc1 (stereo not drawn) [Example 133, trans,trans-1-(2-(N-Propyl-N-(benzylsulfonyl)amino)ethyl)-2-(4-methoxyphenyl)-4-(1,3-benzodioxol-5-yl)pyrrolidine-3-carboxylic acid] | 88.6%
3 | CCCN(CCN1CC(c2ccc3c(c2)OCO3)C(C(=O)O)C1c1ccc(OC)cc1)S(=O)(=O)c1ccc(F)cc1 (stereo not drawn) [Example 134, trans,trans-1-(2-(N-Propyl-N-(4-fluorobenzenesulfonyl)amino)ethyl)-2-(4-methoxyphenyl)-4-(1,3-benzodioxol-5-yl)pyrrolidine-3-carboxylic acid] | 92.2%
4 | CCCN(C)C(=O)CN1CC(c2cccc3occc23)C(C(=O)O)C1c1ccc(OC)cc1 (stereo not drawn) [Example 135B, trans,trans-1-(N-Methyl-N-propylaminocarbonylmethyl)-2-(4-methoxyphenyl)-4-(4-benzofuranyl)pyrrolidine-3-carboxylic acid] | 77.7%
5 | CCCN(C)C(=O)CN1CC(c2ccc3ccoc3c2)C(C(=O)O)C1c1ccc(OC)cc1 (stereo not drawn) [Example 136, trans,trans-1-(N-Methyl-N-propylaminocarbonylmethyl)-2-(4-methoxyphenyl)-4-(6-benzofuranyl)pyrrolidine-3-carboxylic acid] | 79.4%
6 | CCCCN(CCCC)C(=O)CN1CC(c2cccc3occc23)C(C(=O)O)C1c1ccc(OC)cc1 (stereo not drawn) [Example 138, trans,trans-1-(N,N-Di(n-butyl)aminocarbonylmethyl)-2-(4-methoxyphenyl)-4-(4-benzofuranyl)pyrrolidine-3-carboxylic acid] | 83.0%
7 | CCCCN(CCCC)C(=O)CN1CC(c2cccc3occc23)C(C(=O)O)C1c1ccc(OC)cc1 (stereo not drawn) [Example 139, trans,trans-1-(N,N-Di(n-butyl)aminocarbonylmethyl)-2-(4-methoxyphenyl)-4-(4-benzofuranyl)pyrrolidine-3-carboxylic acid] | 98.6%
8 | CCCCN(CCCC)C(=O)CN1CC(c2ccc3ccoc3c2)C(C(=O)O)C1c1ccc(OC)cc1 (stereo not drawn) [Example 140, trans,trans-1-(N,N-Di(n-butyl)aminocarbonylmethyl)-2-(4-methoxyphenyl)-4-(6-benzofuranyl)pyrrolidine-3-carboxylic acid] | 106.3%
9 | CCCCN(CCCC)C(=O)CN1CC(c2ccc3c(c2)OCC3)C(C(=O)O)C1c1ccc(OC)cc1 (stereo not drawn) [Example 141, trans,trans-1-(N,N-Di(n-butyl)aminocarbonylmethyl)-2-(4-methoxyphenyl)-4-(6-benzo-2,3-dihydrofuranyl)pyrrolidine-3-carboxylic acid] | 92.8%
10 | CCCN(C)C(=O)CN1CC(c2ccc3c(c2)CCC3)C(C(=O)O)C1c1ccc(OC)cc1 (stereo not drawn) [Example 142B, trans,trans-1-(N-Methyl-N-propylaminocarbonylmethyl)-2-(4-methoxyphenyl)-4-(5-indanyl)pyrrolidine-3-carboxylic acid] | 78.7%
11 | CCCN(C)C(=O)CN1CC(c2ccc3cc[nH]c3c2)C(C(=O)O)C1c1ccc(OC)cc1 (stereo not drawn) [Example 143, trans,trans-1-(N-Methyl-N-propylaminocarbonylmethyl)-2-(4-methoxyphenyl)-4-(6-indolyl)pyrrolidine-3-carboxylic acid] | 20.6%
12 | CCCN(C)C(=O)CN1CC(c2ccc(F)c(F)c2)C(C(=O)O)C1c1ccc(OC)cc1 (stereo not drawn) [Example 144, trans,trans-1-(N-Methyl-N-propylaminocarbonylmethyl)-2-(4-methoxyphenyl)-4-(3,4-difluorophenyl)pyrrolidine-3-carboxylic acid] | 78.2%
13 | CCCN(C)C(=O)CN1CC(c2ccccc2)C(C(=O)O)C1c1ccc(OC)cc1 (stereo not drawn) [Example 145, trans,trans-1-(N-Methyl-N-propylaminocarbonylmethyl)-2-(4-methoxyphenyl)-4-(phenyl)pyrrolidine-3-carboxylic acid] | 32.4%
14 | CCCN(C)C(=O)CN1CC(c2ccc(O)cc2)C(C(=O)O)C1c1ccc(OC)cc1 (stereo not drawn) [Example 146, trans,trans-1-(N-Methyl-N-propylaminocarbonylmethyl)-2-(4-methoxyphenyl)-4-(4-hydroxyphenyl)pyrrolidine-3-carboxylic acid] | 25.0%
15 | CCCN(C)C(=O)CN1CC(c2ccc(OC)cc2OC)C(C(=O)O)C1c1ccc(OC)cc1 (stereo not drawn) [Example 147, trans,trans-1-(N-Methyl-N-propylaminocarbonylmethyl)-2-(4-methoxyphenyl)-4-(2,4-dimethoxyphenyl)pyrrolidine-3-carboxylic acid] | 73.0%
16 | CCCCN(CCCC)C(=O)CN1CC(c2ccc3c(c2)CCO3)C(C(=O)O)C1c1ccc(OC)cc1 (stereo not drawn) [Example 148, trans,trans-1-(N,N-Di(n-butyl)aminocarbonylmethyl)-2-(4-methoxyphenyl)-4-(5-benzo-2,3-dihydrofuranyl)pyrrolidine-3-carboxylic acid] | 94.7%
17 | CCCCN(CCCC)C(=O)CN1CC(c2ccc(OC)cc2)C(C(=O)O)C1c1ccc(OC)cc1 (stereo not drawn) [Example 149, trans,trans-1-(N,N-Di(n-butyl)aminocarbonylmethyl)-2-(4-methoxyphenyl)-4-(4-methoxyphenyl)pyrrolidine-3-carboxylic acid] | 84.6%
18 | CCCCN(CCCC)C(=O)CN1CC(c2ccc(F)c(F)c2)C(C(=O)O)C1c1ccc(OC)cc1 (stereo not drawn) [Example 150, trans,trans-1-(N,N-Di(n-butyl)aminocarbonylmethyl)-2-(4-methoxyphenyl)-4-(3,4-difluorophenyl)pyrrolidine-3-carboxylic acid] | 93.6%
19 | CCCCN(CCCC)C(=O)CN1CC(c2ccc(OC)cc2OC)C(C(=O)O)C1c1ccc(OC)cc1 (stereo not drawn) [Example 151, trans,trans-1-(N,N-Di(n-butyl)aminocarbonylmethyl)-2-(4-methoxyphenyl)-4-(2,4-dimethoxyphenyl)pyrrolidine-3-carboxylic acid] | 80.5%
20 | CCCCN(CCCC)C(=O)CN1CC(c2ccc3c(c2)OCO3)C(C(=O)O)C1c1ccccc1 (stereo not drawn) [Example 152, trans,trans-1-(N,N-Di(n-butyl)aminocarbonylmethyl)-2-phenyl-4-(1,3-benzodioxol-5-yl)pyrrolidine-3-carboxylic acid] | 86.9%
21 | CCCCN(CCCC)C(=O)CN1CC(c2ccc3c(c2)CCO3)C(C(=O)O)C1c1ccccc1 (stereo not drawn) [Example 153, trans,trans-1-(N,N-Di(n-butyl)aminocarbonylmethyl)-2-phenyl-4-(5-benzo-2,3-dihydrofuranyl)pyrrolidine-3-carboxylic acid] | 97.1%
22 | CCCCN(CCCC)C(=O)CN1CC(c2ccc3c(c2)CCO3)C(C(=O)O)C1c1ccc(C(C)(C)C)cc1 (stereo not drawn) [Example 154, trans,trans-1-(N,N-Di(n-butyl)aminocarbonylmethyl)-2-(4-t-butylphenyl)-4-(5-benzo-2,3-dihydrofuranyl)pyrrolidine-3-carboxylic acid] | 80.2%
23 | CCCCN(CCCC)C(=O)CN1CC(c2ccc3c(c2)OCO3)C(C(=O)O)C1c1ccoc1 (stereo not drawn) [Example 156, trans,trans-1-(N. N-Di(n-butyl)aminocarbonylmethyl)-2-(3-furyl)-4-(1,3-benzodioxol-5-yl)pyrrolidine-3-carboxylic acid] | 92.6%
24 | CCCCN(CCCC)C(=O)CN1CC(c2ccc3c(c2)OCO3)C(C(=O)O)C1C(C)C (stereo not drawn) [Example 157, trans,trans-1-(N,N-Di(n-butyl)aminocarbonylmethyl)-2-(isopropyl)-4-(1,3-benzodioxol-5-yl)pyrrolidine-3-carboxylic acid] | 83.8%
25 | CCCCN(CCCC)C(=O)CN1CC(c2ccc3c(c2)OCO3)C(C(=O)O)C1c1ccc(C(C)(C)C)cc1 (stereo not drawn) [Example 158, trans,trans-1-(N,N-Di(n-butyl)aminocarbonylmethyl)-2-(4-t-butylphenyl)-4-(1,3-benzodioxol-5-yl)pyrrolidine-3-carboxylic acid] | 91.8%
